Assay results as given in PubChem BioAssay AID2305 (GlaxoSmithKline (GSK), 2010).

tested on: P. falciparum 3D7 growth, pLDH absorbance; assay: blood-stage malaria parasite growth potency – strain 3D7, dose response (AID 2305)

| SMILES | IC50 |
| --- | --- |
| Fc1ccc2nc(-c3ccc(-c4ccc(CN5CCN(CCN6CCOCC6)CC5)cc4)s3)[nH]c2c1 | 150 nM |
| COc1ccc2nc3cc(Cl)ccc3c(NCCO)c2c1 | 800 nM |
| CC(CN1CCN(C)CC1)C(=O)Nc1cccc(-c2ccc(-c3nc4ccc(C(F)(F)F)cc4[nH]3)cc2)c1 (centres undefined) | 610 nM |
| c1ccn2c(-c3ncnc(NCc4ccc5c(c4)CCO5)n3)cnc2c1 | 1190 nM |
| CCOC(=O)C1=C(C)NC(Cn2ccnc2)=C(C(=O)OCC)C1c1ccc(C(C)(C)C)cc1 (centres undefined) | 810 nM |
| Cc1ccc(CNC(=O)[C@H](CC(C)C)Nc2cc(C)nc(NCC3CCCCC3)n2)cc1 | 930 nM |
| CS(=O)(=O)CCNCc1cccc(-c2ccc3c(Nc4cc(O)c(Cl)cc4F)ccnc3c2)c1 | 250 nM |
| CC(=O)Nc1ccc(-c2nc3ccc(-c4nc5ccc(NC(C)=O)cc5[nH]4)cc3[nH]2)cc1 | 240 nM |
| O=C(NCc1cccc(C(F)(F)F)c1)c1ccc(CNC(=O)c2ccc(O)c(-c3ccc(Cl)c(Cl)c3)c2)cc1 | 840 nM |
| Cc1nnc2sc(-c3cccc(NC(=O)c4ccc(N5CCCCC5)c([N+](=O)[O-])c4)c3)nn12 | 1300 nM |
| Fc1ccc2nc(-c3cccc(-c4ccc(CN5CCCCC5)cc4)c3)[nH]c2c1 | 160 nM |
| CN(CCO)Cc1ccc(-c2ccc(NS(=O)(=O)c3cccc4cccnc34)cc2)cc1 | 790 nM |
| CC(CN(C)C)C(=O)Nc1ccc(-c2csc(-c3nc4ccccc4[nH]3)c2)cc1 (centres undefined) | 1320 nM |
| CS(=O)(=O)CCNCc1nc(-c2ccc3c(Nc4ccc(Oc5ccccn5)cc4)ccnc3c2)cs1 | 680 nM |
| O=C(/C=C/c1ccc(Cl)c(Cl)c1)NCCCCCN1CCC(C(=O)Nc2ccc(Cl)c(Cl)c2)CC1 | 640 nM |
| Cc1nc(N)nc(N)c1-c1ccc2ccccc2c1 | 870 nM |
| CCCC(=O)c1cnc2cc(O)ccc2c1Nc1ccccc1C | 650 nM |
| CC(C)(C)OC(=O)NCC(=O)N(Cc1ccccc1)Cc1ccccc1 | 120 nM |
| CCCOc1c(CCNCCCCNCCc2ccc3ccccc3c2OCCC)ccc2ccccc12 | 480 nM |
| O=C(Nc1cc(Cl)ccc1Cl)N[C@H]1CCN(CCCCCNC(=O)[C@@H]2C[C@H]2c2ccc(Cl)c(Cl)c2)C1 | 770 nM |
| CCN(CC1CCN(CC2(O)CCOCC2)CC1)c1cc(C)nc(Nc2ccc(Cl)cc2)n1 | 410 nM |
| Cc1cnc(Nc2cccnc2)nc1Nc1ccccc1C(=O)NC(C)C | 1200 nM |
| CN(C)c1ccc(C=C2SC(=Nc3ccccc3)N(c3ccccc3)C2=O)cc1[N+](=O)[O-] | 780 nM |
| O=S(=O)(NC1CCN(c2ccnc3cc(Cl)ccc23)C1)c1ccc(F)cc1 (centres undefined) | 470 nM |
| Cc1ccc(Cn2ncc(N3CCC(N)CC3)c(Cl)c2=O)cc1NC(=O)Nc1ccc(-c2ccccc2)cc1 | 920 nM |

| SMILES | IC50 |
| --- | --- |
| COc1ccc2nccc(NCC3(O)CCN(CC(O)c4ccc5c(c4)NC(=O)CS5)CC3)c2n1 (centres undefined) | 830 nM |
| Cc1[nH]nc2cc(F)c(-c3cc(OC[C@@H](N)Cc4ccccc4)cnc3-c3ccoc3)cc12 | 1040 nM |
| O=C(NC1CCN(Cc2ccc(F)cc2)CC1)c1ccc(-c2cccc(C(F)(F)F)c2)s1 | 1360 nM |
| Cc1cccc(NC(c2cccs2)c2c(NC(=O)c3ccccc3)sc(C)c2C)n1 (centres undefined) | 830 nM |
| CCCc1cn2c3c(cc(C(=O)N[C@@H](Cc4ccccc4)[C@H](O)CNC4CCCCC4)cc13)N(CC)S(=O)(=O)CC2 | 80 nM |
| CS(=O)(=O)NCCCNCc1ccc(-c2cccc(-c3nc4ccc(C(F)(F)F)cc4[nH]3)c2)cc1 | 850 nM |
| COc1ccccc1C1CCN(CCCCNC(=O)c2ccc(/C=C/c3cc(Cl)cc(Cl)c3)cc2)CC1 | 720 nM |
| CCN(CC)c1nc(N)c2c(N)nc3c(c2c1C#N)C(=O)CN3Cc1ccccc1 | 70 nM |
| CCc1ccc(NC(=O)c2ccc(CN3CCCN(Cc4ccc(C)s4)CC3)cc2)cc1 | 1150 nM |
| O=C(Cc1cnc[nH]1)Nc1cccc(-c2cccc(-c3nc4ccccc4[nH]3)c2)c1 | 1020 nM |
| COc1ccc(NC(=O)NC2CCN(CCCOc3ccnc4cc(Cl)ccc34)C2)cc1OC (centres undefined) | 790 nM |
| O=C(NOCCOc1ccccc1)c1ccccc1 | 320 nM |
| NCc1cccc(-c2ccc3ccnc(N)c3c2)c1 | 170 nM |
| COc1cccc(C(=O)NCCOc2ccccc2)c1Oc1ccccc1 | 920 nM |
| Cn1cncc1C(=O)Nc1ccc(-c2ccc(-c3nc4ccc(C(F)(F)F)cc4[nH]3)cc2)cc1 | 560 nM |
| CCOc1c(CNCCCNc2cc(=O)c3ccccc3[nH]2)cc(I)cc1OC | 1170 nM |
| O=C(Nc1cccc([N+](=O)[O-])c1)Nc1cccc(C(F)(F)F)c1 | 770 nM |
| Cc1cc(NN=Cc2ccc(Cl)cc2)c2cc(F)ccc2n1 | 830 nM |
| CC1(C)CC(=O)c2c(O)cc(OCc3ccncc3)cc2O1 | 1040 nM |
| c1ccc(CCNc2ncnc3c2[nH]c2ccccc23)cc1 | 600 nM |
| COc1ccc(CN2CCC(N3CCc4cc(NC(=O)c5cc(C)on5)ccc43)C2)cc1Cl (centres undefined) | 940 nM |
| Nc1nc(N)c2c(ccc3c2cnn3S(=O)(=O)N2CCCC2)n1 | 20 nM |
| CCOc1cc2ncnc(Nc3ccc(OCc4ccccc4Br)c(OC)c3)c2cc1OCC | 470 nM |
| O=S(=O)(Nc1cccc(CCN2CCC(N3CCCCC3)CC2)c1)c1cccc(C(F)(F)F)c1 | 980 nM |
